ChEMBL document CHEMBL1201862, “PubChem BioAssay data set” (2004)
Calls of active or inactive are those of the source. Cut-off read from the data, not from the text of the source, for most assays here: actives have a measured EC50 and inactives only a lower limit.

Columns and labels:
[1] = molecular target: T1, Replicative DNA helicase DnaB (Mycobacterium tuberculosis, UniProt P9WMR3); test: DnaB intein splicing inhibitors, dose response, biochemical, cell-free fluorescence (AID 449749); assay type: functional
T1 sequence (P9WMR3 whole entry): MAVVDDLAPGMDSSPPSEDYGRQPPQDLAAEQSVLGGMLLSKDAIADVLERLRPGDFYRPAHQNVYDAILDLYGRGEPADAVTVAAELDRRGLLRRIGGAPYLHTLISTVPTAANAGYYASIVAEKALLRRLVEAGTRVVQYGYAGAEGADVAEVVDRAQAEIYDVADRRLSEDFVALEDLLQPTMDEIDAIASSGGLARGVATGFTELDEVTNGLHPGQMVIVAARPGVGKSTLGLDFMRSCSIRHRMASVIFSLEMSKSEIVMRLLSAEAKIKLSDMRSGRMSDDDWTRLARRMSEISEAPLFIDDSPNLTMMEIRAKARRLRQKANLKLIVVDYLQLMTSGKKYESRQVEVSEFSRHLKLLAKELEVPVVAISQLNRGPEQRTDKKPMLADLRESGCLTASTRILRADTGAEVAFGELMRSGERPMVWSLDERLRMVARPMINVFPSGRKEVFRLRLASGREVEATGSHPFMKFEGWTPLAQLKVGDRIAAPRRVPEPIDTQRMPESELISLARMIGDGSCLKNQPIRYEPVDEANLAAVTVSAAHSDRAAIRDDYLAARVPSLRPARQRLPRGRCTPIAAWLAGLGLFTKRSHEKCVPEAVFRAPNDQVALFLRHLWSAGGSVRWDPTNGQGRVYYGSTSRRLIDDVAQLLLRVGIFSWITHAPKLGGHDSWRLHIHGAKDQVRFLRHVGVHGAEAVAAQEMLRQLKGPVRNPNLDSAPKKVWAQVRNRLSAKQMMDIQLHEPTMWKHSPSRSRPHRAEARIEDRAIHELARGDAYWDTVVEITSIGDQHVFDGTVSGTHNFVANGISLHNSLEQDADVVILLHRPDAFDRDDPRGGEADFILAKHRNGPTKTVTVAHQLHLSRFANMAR

Protein RecA = molecular target: T2, Protein RecA (Mycobacterium tuberculosis, UniProt P9WHJ3); test: Fluorescence Cell-Free Homogeneous Dose Retest to Identify Inhibitors of RecA-Intein Splicing Activity. [Related pubchem assays (depositor defined):AID2097, AID2223, AID489010, AID492950]; assay type: functional
T2 sequence (P9WHJ3 whole entry): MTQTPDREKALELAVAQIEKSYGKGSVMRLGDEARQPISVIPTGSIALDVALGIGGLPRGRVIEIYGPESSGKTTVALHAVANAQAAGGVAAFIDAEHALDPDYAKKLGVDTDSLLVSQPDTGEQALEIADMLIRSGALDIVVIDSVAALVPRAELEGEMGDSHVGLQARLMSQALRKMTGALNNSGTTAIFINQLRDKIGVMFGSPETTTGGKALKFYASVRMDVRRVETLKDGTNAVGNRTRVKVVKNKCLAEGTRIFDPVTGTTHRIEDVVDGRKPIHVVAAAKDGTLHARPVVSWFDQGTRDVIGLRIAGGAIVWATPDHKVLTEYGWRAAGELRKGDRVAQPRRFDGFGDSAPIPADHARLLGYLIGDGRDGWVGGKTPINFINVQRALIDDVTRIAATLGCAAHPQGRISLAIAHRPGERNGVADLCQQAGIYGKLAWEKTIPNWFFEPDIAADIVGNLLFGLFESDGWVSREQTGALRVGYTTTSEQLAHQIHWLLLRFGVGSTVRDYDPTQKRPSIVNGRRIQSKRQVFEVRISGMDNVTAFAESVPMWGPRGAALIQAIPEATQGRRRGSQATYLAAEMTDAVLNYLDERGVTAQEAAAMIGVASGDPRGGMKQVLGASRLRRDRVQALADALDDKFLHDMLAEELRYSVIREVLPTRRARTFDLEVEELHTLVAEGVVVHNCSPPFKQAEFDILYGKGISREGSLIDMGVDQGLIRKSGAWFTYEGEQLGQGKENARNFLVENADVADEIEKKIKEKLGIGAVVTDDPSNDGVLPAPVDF

[2] = luciferase reporter signal suppression in cells – H4 neuroglioma cells, luminescence, dose response (AID 1990); assay type: functional, cell-based
[3] = Luminescence Cell-Based Dose Response HTS to Identify Inhibitors of 5'UTR Stem-Loop Driven Prion Protein mRNA Translation in H4 Neuroglioblastoma Cells. [Related pubchem assays: 1827 (Project Summary), 1813 (Primary HTS)]; assay type: functional
[4] = alpha-synuclein stem-loop luciferase translation blockers – H4 neuroglioma cells, luminescence, confirmation (AID 1988); assay type: functional, cell-based
[5] = test system: Streptococcus sp. 'group A'; test: Streptococcus pyogenes SK(-)GAS viability under kanamycin – luminescence, BacTiterGlo, confirmation, counter-screen for streptokinase expression inhibitor project, dose response (AID 1900); assay type: functional, organism-based
Streptokinase A = molecular target: T3, Streptokinase A (Streptococcus pyogenes serotype M1, UniProt P10520); test: viability-normalized secreted streptokinase activity reduction – plasminogen activation absorbance, OD405, dose response (AID 1914); assay type: functional, Streptococcus pyogenes M1 GAS;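 note: secreted streptokinase activity via plasminogen activation per viability signal from cell pellet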
T3 sequence (P10520 whole entry): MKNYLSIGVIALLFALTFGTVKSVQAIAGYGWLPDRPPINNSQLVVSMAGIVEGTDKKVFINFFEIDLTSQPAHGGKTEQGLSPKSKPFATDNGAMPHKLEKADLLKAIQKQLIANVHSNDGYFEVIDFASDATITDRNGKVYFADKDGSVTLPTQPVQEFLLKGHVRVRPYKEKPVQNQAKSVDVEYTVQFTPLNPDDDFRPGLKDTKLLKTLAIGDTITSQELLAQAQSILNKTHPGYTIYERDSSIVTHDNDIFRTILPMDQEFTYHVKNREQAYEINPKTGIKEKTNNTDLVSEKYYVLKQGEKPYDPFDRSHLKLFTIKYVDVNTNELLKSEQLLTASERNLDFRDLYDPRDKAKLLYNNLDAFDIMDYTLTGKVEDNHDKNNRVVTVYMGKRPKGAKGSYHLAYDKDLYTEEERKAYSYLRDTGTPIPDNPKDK

Streptococcus = test: GAS UMAA2166 growth inhibition – luminescence, BacTiterGlo, counter-screen for streptokinase expression inhibitor project, dose response (AID 1915); assay type: functional, organism-based;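 note: potency for reduction of bacterial viability or growth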
[6] = Luminescence Cell-Based Dose Retest to Confirm Inhibitors of Cancer Stem Cells. [Related pubchem assays (depositor defined):AID2717, AID2721]; assay type: functional; conditions: Homo sapiens
[7] = Trypanosoma cruzi growth suppression in host cells – NIH3T3 host cells, beta-gal luminescence, confirmation (AID 2044); assay type: functional, cell-based;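 note: intracellular parasites grown in NIH/3T3 mouse fibroblasts as host cells; luminescent beta-galactosidase reporter signal from transgenic T. cruzi replicating inside host cells; inhibitors lower the luminescence signal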
[8] = NIH3T3 cell viability loss – ATP luminescence, mouse fibroblasts, counter-screen, dose response (AID 2010); assay type: functional, cell-based;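 note: cells exposed to compound for about 90 hours before reading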

Row | SMILES | EC50 [2] | EC50 [3] | EC50 [4] | AC50 [6] | further results
1 | CC(=O)c1ccc(OC(=O)c2cccs2)cc1 |  |  |  |  | AC50 [1]: 24.3 µM (active); EC50 (Protein RecA): 12.2 µM (active)
2 | O=C1c2ccccc2C(=O)C12Cc1ccccc1N1CCN(c3ccccc3)CC12 (stereo unspecified) | > 120 µM (not active) | > 120 µM (not active) | > 120 µM (not active) |  | 
3 | O=C1N=C(Nc2ccc(Cl)cc2)SC1Cc1cccc(Cl)c1Cl (stereo unspecified) |  |  |  | 13.2 µM (active) | EC50 [5]: 3.91 µM (active); EC50 (Streptokinase A): 131 µM (active); EC50 (Streptococcus): > 150 µM (not active)
4 | Cc1ccc(Cl)cc1N1CCN(C(CC(C)C)c2nnnn2CC2CCCO2)CC1 (stereo unspecified) |  |  |  | 0.631 µM (active) | 
5 | CC(=O)c1ccc(Oc2ncnc(N)c2[N+](=O)[O-])cc1 | > 120 µM (not active) | 13.6 µM (active) | 11.2 µM (active) |  | 
6 | CCC(C)N1C(=O)/C(=C/NNc2ccccc2)C(=O)NC1=S (stereo unspecified) |  |  |  | 2.24 µM (active) | EC50 [5]: > 150 µM (not active); EC50 (Streptokinase A): > 150 µM (not active); EC50 (Streptococcus): > 150 µM (not active)
7 | Nc1nc(NCCOCCO)nc(NC2CCCCC2)c1[N+](=O)[O-] | 16.7 µM (active) | 0.14 µM (active) | 17.3 µM (active) |  | 
8 | Cc1n[nH]c2c1C(CC(C)C)C(C#N)=C(N)O2 (stereo unspecified) |  |  |  |  | AC50 [1]: 13.1 µM (active); EC50 (Protein RecA): 3.84 µM (active)
9 | O=C(CCCN1C(=O)/C(=C\c2cccs2)SC1=S)Nc1ccc(O)cc1C(=O)O |  |  |  |  | AC50 [1]: 17.7 µM (active); EC50 (Protein RecA): 12.7 µM (active)
10 | Cc1cc(N)n(-c2ccc(S(N)(=O)=O)cc2[N+](=O)[O-])n1 |  |  |  | > 195 µM (inactive) | 
11 | CCOC(=O)c1sc2nc(CC(=O)OC)nc(N3CCN(c4ccc(OC)cc4)CC3)c2c1C | > 120 µM (not active) | > 120 µM (not active) | 89.9 µM (active) |  | EC50 [7]: 1.91 µM (active); EC50 [8]: > 60 µM (not active)
12 | CC(C)n1nc(C(=O)Nc2nnc(SCc3c(Cl)cccc3Cl)s2)c2ccccc2c1=O |  |  |  |  | EC50 [5]: 2.09 µM (active); EC50 (Streptokinase A): > 150 µM (not active); EC50 (Streptococcus): 116 µM (active)
13 | Cn1cnc([N+](=O)[O-])c1Sc1ccc(C(C)(C)C)cc1 |  |  |  |  | AC50 [1]: 13.6 µM (active); EC50 (Protein RecA): 14.1 µM (active)
14 | N#Cc1nc(Cc2cccc3ccccc23)oc1N1CCCCC1 | 16.2 µM (active) | > 120 µM (not active) | > 120 µM (not active) |  | 
15 | CC(C)[C@@H]1CC[C@@H](C)c2c1n[nH]c2-c1ccccc1 |  |  |  | 4.99 µM (active) | 
16 | Nc1nc(NCc2ccco2)nc(Nc2ccc(F)cc2)c1[N+](=O)[O-] | 35 µM (active) | > 120 µM (not active) | > 120 µM (not active) |  | 
17 | COc1ccc(/C=C/c2cc(C(=O)O)c3ccccc3n2)cc1 | 3.67 µM (active) | 2.83 µM (active) | 6.45 µM (active) |  | 
18 | CCCc1nnc(NC(=O)c2c(O)c3cccc4c3n(c2=O)CCC4)s1 | 99.5 µM (active) | > 120 µM (not active) | > 120 µM (not active) |  | EC50 [5]: 2.53 µM (active); EC50 (Streptococcus): 3.1 µM (active)
19 | COC(=O)Nc1nc(-c2ccccc2)c(C(=O)c2ccc(Cl)cc2)s1 | 7.45 µM (active) | 7.87 µM (active) | 0.179 µM (active) |  | 
20 | CCc1ccc(Nc2nc(N)nc(CSc3nc4ccccc4s3)n2)cc1 |  |  |  | > 195 µM (inactive) | 
21 | CCc1nnc(NC(=O)c2ccc(S(=O)(=O)N(C)Cc3ccccc3)cc2)o1 | > 120 µM (not active) | > 120 µM (not active) | > 120 µM (not active) |  | 
22 | CCCc1n[nH]c2c1C(c1ccccc1OCC)C(C#N)=C(N)O2 (stereo unspecified) |  |  |  |  | AC50 [1]: 237 µM (active); EC50 (Protein RecA): 9.01 µM (active)
23 | CCOC(=O)C(C#N)C(c1cccnc1)c1c(C)[nH][nH]c1=O (stereo unspecified) |  |  |  |  | AC50 [1]: 6.32 µM (active); EC50 (Protein RecA): 1.81 µM (active)
24 | Cc1ccc(Nc2nc(N)c([N+](=O)[O-])c(NCc3ccco3)n2)cc1C |  |  |  | 6.48 µM (active) | 
25 | CCCC(O)(c1ccc(Br)cc1)C(CN1CCOCC1)c1ccc(Cl)cc1 (stereo unspecified) |  |  |  |  | EC50 [5]: 7.94 µM (active); EC50 (Streptokinase A): 12.1 µM (active); EC50 (Streptococcus): 72.1 µM (active)
26 | CC1CCc2cccc3c2N1c1cc(C#N)c(C#N)cc1O3 (stereo unspecified) | 8.54 µM (active) | 88.7 µM (active) | 33.4 µM (active) |  | 
27 | COc1ccc(-c2sc3ccc(N4CCOCC4)cc3c2C#CCCO)cc1 |  |  |  | 3 µM (active) | 
28 | Oc1nc(CN2CCN(c3ccccn3)CC2)nc2c(Br)cc(Br)cc12 |  |  |  | 2.76 µM (active) | 
29 | C[C@@H]1CN([C@H](C)CO)C(=O)c2cc(NC(=O)Nc3ccc(C(F)(F)F)cc3)ccc2O[C@H]1CN(C)S(=O)(=O)c1ccc(Cl)cc1 |  |  |  | 2.71 µM (active) | 
30 | Cc1cccc(C)c1NC(=S)N/N=C/c1ccc(OCCC(C)C)cc1 |  |  |  |  | EC50 [5]: 8.34 µM (active); EC50 (Streptokinase A): 16.9 µM (active); EC50 [7]: 2.02 µM (active); EC50 [8]: > 60 µM (inconclusive); EC50 (Streptococcus): 21.9 µM (active)
